Biological target: recombinant human ACC2 (Homo sapiens (Human), UniProt O00763)
Assay: Measurement of inhibitory activity on human ACC2 (MALDI-TOF MS, acetyl CoA to malonyl CoA conversion)
Type: biochemical
Conditions: Tables 155-159
Outline: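 His-tagged human ACC2 (residues 27–2458) from baculovirus-infected Sf-9 cells was preincubated 1 h in pH 7.4 HEPES-KOH buffer with MgCl2, 6-10 mM potassium citrate, glutathione and BSA. Substrate solution held 1 mM ATP, 0.8 mM acetyl CoA and 25-50 mM bicarbonate. After 1–3 h at room temperature, malonyl CoA/(malonyl+acetyl CoA) was read by negative-mode MALDI-TOF MS; citrate, bicarbonate and time varied by enzyme lot.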

Chain of recombinant human ACC2 (O00763 27-2458): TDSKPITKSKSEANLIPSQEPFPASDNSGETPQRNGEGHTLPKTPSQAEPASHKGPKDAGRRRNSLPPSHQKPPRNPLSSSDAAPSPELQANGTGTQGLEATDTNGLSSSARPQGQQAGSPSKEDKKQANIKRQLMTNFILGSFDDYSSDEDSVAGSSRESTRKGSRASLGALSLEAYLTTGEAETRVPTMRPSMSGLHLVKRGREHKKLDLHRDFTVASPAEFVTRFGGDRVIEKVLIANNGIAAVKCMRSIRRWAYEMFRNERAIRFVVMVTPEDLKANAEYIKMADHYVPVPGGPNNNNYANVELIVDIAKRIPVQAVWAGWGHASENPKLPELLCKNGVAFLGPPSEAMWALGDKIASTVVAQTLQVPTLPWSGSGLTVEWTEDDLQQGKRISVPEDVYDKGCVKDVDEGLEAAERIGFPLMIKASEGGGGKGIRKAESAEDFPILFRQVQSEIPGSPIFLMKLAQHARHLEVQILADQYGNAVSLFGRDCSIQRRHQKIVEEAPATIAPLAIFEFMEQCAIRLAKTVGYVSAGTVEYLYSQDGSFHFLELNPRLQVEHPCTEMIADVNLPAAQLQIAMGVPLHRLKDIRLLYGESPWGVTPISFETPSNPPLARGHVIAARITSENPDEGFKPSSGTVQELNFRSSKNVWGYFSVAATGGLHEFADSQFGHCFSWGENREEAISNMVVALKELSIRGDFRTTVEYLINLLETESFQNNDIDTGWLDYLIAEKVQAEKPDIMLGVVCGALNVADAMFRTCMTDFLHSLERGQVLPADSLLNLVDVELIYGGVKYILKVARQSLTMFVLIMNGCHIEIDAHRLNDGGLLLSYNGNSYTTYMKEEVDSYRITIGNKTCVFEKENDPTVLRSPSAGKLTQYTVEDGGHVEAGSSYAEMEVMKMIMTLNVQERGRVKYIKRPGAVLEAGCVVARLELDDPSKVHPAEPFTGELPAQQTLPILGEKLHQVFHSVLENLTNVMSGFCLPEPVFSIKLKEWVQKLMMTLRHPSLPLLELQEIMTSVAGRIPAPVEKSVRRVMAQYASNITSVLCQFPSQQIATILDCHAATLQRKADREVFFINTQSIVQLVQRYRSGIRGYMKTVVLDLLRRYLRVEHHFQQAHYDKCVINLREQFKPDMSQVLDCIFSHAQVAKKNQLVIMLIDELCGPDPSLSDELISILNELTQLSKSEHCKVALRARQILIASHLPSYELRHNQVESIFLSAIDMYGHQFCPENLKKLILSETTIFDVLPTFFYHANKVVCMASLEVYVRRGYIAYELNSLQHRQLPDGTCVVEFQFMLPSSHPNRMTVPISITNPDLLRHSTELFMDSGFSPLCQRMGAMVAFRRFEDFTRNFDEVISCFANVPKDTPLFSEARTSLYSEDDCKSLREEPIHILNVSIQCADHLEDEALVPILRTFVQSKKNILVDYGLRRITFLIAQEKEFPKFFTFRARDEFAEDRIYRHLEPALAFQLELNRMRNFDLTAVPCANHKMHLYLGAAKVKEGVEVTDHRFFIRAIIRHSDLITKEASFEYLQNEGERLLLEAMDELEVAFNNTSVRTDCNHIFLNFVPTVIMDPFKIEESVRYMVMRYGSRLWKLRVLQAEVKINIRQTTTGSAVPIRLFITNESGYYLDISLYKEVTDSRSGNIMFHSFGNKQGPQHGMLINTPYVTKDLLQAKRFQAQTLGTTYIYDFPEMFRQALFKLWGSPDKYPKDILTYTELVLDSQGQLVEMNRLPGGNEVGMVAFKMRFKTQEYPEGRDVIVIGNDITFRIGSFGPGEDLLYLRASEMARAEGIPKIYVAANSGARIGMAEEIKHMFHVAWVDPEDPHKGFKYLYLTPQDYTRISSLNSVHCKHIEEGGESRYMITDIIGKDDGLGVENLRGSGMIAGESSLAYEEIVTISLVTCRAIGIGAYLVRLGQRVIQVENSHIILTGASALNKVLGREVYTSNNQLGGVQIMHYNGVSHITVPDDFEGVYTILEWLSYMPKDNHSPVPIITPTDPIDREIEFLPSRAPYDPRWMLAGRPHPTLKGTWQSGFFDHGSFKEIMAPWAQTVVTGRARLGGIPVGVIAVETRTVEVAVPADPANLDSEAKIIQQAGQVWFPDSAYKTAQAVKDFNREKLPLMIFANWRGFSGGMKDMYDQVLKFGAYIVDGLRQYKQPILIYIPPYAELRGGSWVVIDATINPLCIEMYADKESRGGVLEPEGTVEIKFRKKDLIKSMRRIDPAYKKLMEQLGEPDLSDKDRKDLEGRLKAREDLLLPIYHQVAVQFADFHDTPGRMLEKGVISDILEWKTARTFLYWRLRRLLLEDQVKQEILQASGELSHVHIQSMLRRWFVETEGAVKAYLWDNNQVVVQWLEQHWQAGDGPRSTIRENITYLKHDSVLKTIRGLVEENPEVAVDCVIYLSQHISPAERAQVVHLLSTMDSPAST

Row | SMILES | IC50
1 | CC(=O)N[C@@H](C)CO[C@H]1CC[C@H](Oc2ncc(-c3ncc(C(F)(F)F)cn3)cc2C#N)CC1 [Compound I-546] | 66 nM
2 | CC(=O)N[C@@H](C)CO[C@H]1CC[C@H](Oc2nc3ccc(Br)cc3s2)CC1 [Compound I-547] | 104 nM
3 | CC(=O)N[C@@H](C)CO[C@H]1CC[C@H](Oc2ncc3cc(OCC4CC4)ccc3n2)CC1 [Compound I-548] | 124 nM
4 | CC(=O)N[C@@H](C)CO[C@H]1CC[C@H](Oc2nc3cc(Br)ccc3s2)CC1 [Compound I-549] | 37 nM
5 | CC(=O)N[C@@H](C)CO[C@H]1CC[C@H](Oc2nc3ccc(OCC4CC4)cc3s2)CC1 [Compound I-550] | 21 nM
6 | CC(=O)N[C@@H](C)CO[C@H]1CC[C@H](Oc2nc3cnc(OCC(F)F)cc3s2)CC1 [Compound I-551] | 15 nM
7 | CC(=O)N[C@@H](C)CO[C@H]1CC[C@H](Oc2nc3cnc(OCC(F)F)c(F)c3s2)CC1 [Compound I-552] | 13 nM
8 | CC(=O)N[C@@H](C)CO[C@H]1CC[C@H](Oc2nc3ccc(OCC(F)F)nc3s2)CC1 [Compound I-553] | 196 nM
9 | CC(=O)N[C@@H](C)CO[C@H]1CC[C@H](Oc2ncc3cc(OCC(F)F)ccc3n2)CC1 [Compound I-554] | 620 nM
10 | CC(=O)N[C@@H](C)CO[C@H]1CC[C@H](Oc2ncc3c(Cl)c(OCC4CC4)ccc3n2)CC1 [Compound I-555] | 34 nM
11 | CCOc1cc2c(cn1)nc(O[C@H]1CC[C@H](OC[C@H](C)NC(C)=O)CC1)n2C [Compound I-563] | 101 nM
12 | CC(=O)N[C@@H](C)CO[C@H]1CC[C@H](Oc2nc3cc(C(F)(F)F)ccc3n2C)CC1 [Compound I-587] | 87 nM
13 | COc1ccc2nc(O[C@H]3CC[C@H](OC[C@H](C)NC(C)=O)CC3)n(C)c2c1F [Compound I-599] | 23 nM
14 | CCOc1ccc2nc(O[C@H]3CC[C@H](OC[C@H](C)NC(C)=O)CC3)n(C)c2c1F [Compound I-601] | 8 nM
15 | CC(=O)N[C@@H](C)CO[C@H]1CC[C@H](Oc2nc3ccc(OC(C)C)c(F)c3n2C)CC1 [Compound I-602] | 12 nM
16 | CCOc1c(Cl)cc2nc(O[C@H]3CC[C@H](OC[C@H](C)NC(C)=O)CC3)n(C)c2c1Cl [Compound I-603] | 7 nM
17 | CCOc1ccc2nc(O[C@H]3CC[C@H](OC[C@H](C)NC(C)=O)CC3)n(C)c2c1Cl [Compound I-604] | 6 nM
18 | CCOc1ccc2nc(O[C@H]3CC[C@H](OC[C@H](C)NC(C)=O)CC3)n(C)c2c1Br [Compound I-605] | 13 nM
19 | CCOc1ccc2nc(O[C@H]3CC[C@H](OC[C@H](C)NC(C)=O)CC3)n(C)c2c1C [Compound I-606] | 74 nM

Row | SMILES | IC50
20 | CC(=O)N[C@@H](C)CO[C@H]1CC[C@H](Oc2nc3cnc(OC(C)C)cc3n2C)CC1 [Compound I-607] | 110 nM
21 | CC(=O)N[C@@H](C)CO[C@H]1CC[C@H](Oc2nc3cnc(OC[C@H](C)F)c(Cl)c3n2C)CC1 [Compound I-608] | 11 nM
22 | CC(=O)N[C@@H](C)CO[C@H]1CC[C@H](Oc2nc3c(Cl)c(Cl)c(OCC(F)F)cc3n2C)CC1 [Compound I-609] | 525 nM
23 | CCOc1cc2c(nc(O[C@H]3CC[C@H](OC[C@H](C)NC(C)=O)CC3)n2C)c(F)c1Cl [Compound I-610] | 85 nM
24 | CC(=O)N[C@@H](C)CO[C@H]1CC[C@H](Oc2nc3c(F)cc(OC4CC4)c(F)c3n2C)CC1 [Compound I-611] | 3 nM
25 | C[C@@H](CO[C@H]1CC[C@H](Oc2nc3c(F)cc(OCC(F)F)c(F)c3n2C)CC1)NC(=O)C(F)F [Compound I-614] | 11 nM
26 | CC(=O)N[C@@H](C)CC[C@H]1OC[C@H](Oc2nc3c(F)cc(OCC(F)F)c(F)c3n2C)CO1 [Compound I-615] | 27 nM
27 | CC(=O)N[C@@H](C)CO[C@H]1CC[C@H](Oc2nc3c(F)cc(OC4CN(C(C)=O)C4)c(F)c3n2C)CC1 [Compound I-616] | 240 nM
28 | CC(=O)N[C@@H](C)CO[C@H]1CC[C@H](Oc2nc3c(C#N)cc(OC4CC4)c(F)c3n2C)CC1 [Compound I-617] | 9 nM
29 | CC(=O)N[C@@H](C)CO[C@H]1CC[C@H](Oc2nc3c(Cl)c(F)c(OCC(F)F)c(F)c3n2C)CC1 [Compound I-618] | 17 nM
30 | CC(=O)N[C@@H](C)CO[C@H]1CC[C@H](Oc2nc3c(F)c(F)c(F)c(F)c3n2C)CC1 [Compound I-619] | 9 nM
31 | CC(=O)N[C@@H](C)CO[C@H]1CC[C@H](Oc2nc3ccc(C4CC4)c(F)c3n2C)CC1 [Compound I-621] | 8 nM
32 | CC(=O)N[C@@H](C)CO[C@H]1CC[C@H](Oc2nc3c(F)cc(Br)cc3n2C)CC1 [Compound I-622] | 72 nM
33 | CC(=O)N[C@@H](C)CO[C@H]1CC[C@H](Oc2nc3c(Cl)cc(OCC(F)F)c(Cl)c3n2C)CC1 [Compound I-623] | 17 nM
34 | CC(=O)N[C@@H](C)CO[C@H]1CC[C@H](Oc2nc3cnc(OCC(F)F)c(F)c3n2C)CC1 [Compound I-624] | 9 nM
35 | CC(=O)N[C@@H](C)CO[C@H]1CC[C@H](Oc2nc3cnc(OCC4CC4)c(F)c3n2C)CC1 [Compound I-625] | 5 nM
36 | CC(=O)N[C@@H](C)CO[C@H]1CC[C@H](Oc2nc3c(F)cc(OCC4CC4)c(F)c3n2C)CC1 [Compound I-626] | 6 nM
37 | CC(=O)N[C@@H](C)CC[C@@H]1CC[C@@H](Oc2nc3c(F)cc(OCC(F)F)c(F)c3n2C)CO1 [Compound I-627] | 5 nM
38 | C[C@@H](CO[C@H]1CC[C@H](Oc2nc3c(F)cc(OCC(F)F)c(F)c3n2C)CC1)NC(=O)CO [Compound I-628] | 59 nM

Continued, values first:

Row | IC50 | SMILES
39 | 105 nM | CC(=O)N[C@@H](C)CO[C@H]1CC[C@H](Oc2nc3ccc(Br)cc3n2C)CC1 [Compound I-556]
40 | 216 nM | CC(=O)N[C@@H](C)CO[C@H]1CC[C@H](Oc2nc3cc(Br)ccc3n2C)CC1 [Compound I-557]
41 | 43 nM | CC(=O)N[C@@H](C)CO[C@H]1CC[C@H](Oc2nc3ccc(OCc4ccccc4)cc3n2C)CC1 [Compound I-558]
42 | 43 nM | CCOc1ccc2nc(O[C@H]3CC[C@H](OC[C@H](C)NC(C)=O)CC3)n(C)c2c1 [Compound I-559]
43 | 101 nM | CC(=O)N[C@@H](C)CO[C@H]1CC[C@H](Oc2nc3ccc(OC(C)C)cc3n2C)CC1 [Compound I-560]
44 | 104 nM | CC(=O)N[C@@H](C)CO[C@H]1CC[C@H](Oc2nc3ccc(OCC4CC4)cc3n2C)CC1 [Compound I-561]
45 | 350 nM | CCOc1ccc2nc(O[C@H]3CC[C@H](OC[C@H](C)NC(C)=O)CC3)n(C(C)C)c2c1 [Compound I-562]
46 | 385 nM | CCOc1ccc2c(c1)nc(O[C@H]1CC[C@H](OC[C@H](C)NC(C)=O)CC1)n2C [Compound I-564]
47 | 304 nM | CC(=O)N[C@@H](C)CO[C@H]1CC[C@H](Oc2nc3cc(OC(C)C)ccc3n2C)CC1 [Compound I-566]
48 | 167 nM | CC(=O)N[C@@H](C)CO[C@H]1CC[C@H](Oc2nc3cc(OCC4CC4)ccc3n2C)CC1 [Compound I-567]
49 | 225 nM | CCOc1ccc2nc(O[C@H]3CC[C@H](OC[C@H](C)NC(C)=O)CC3)n(C3CC3)c2c1 [Compound I-568]
50 | 86 nM | CC(=O)N[C@@H](C)CO[C@H]1CC[C@H](Oc2nc3ccc(OCC(F)F)cc3n2C)CC1 [Compound I-569]
51 | 935 nM | COc1ccc2c(c1)nc(O[C@H]1CC[C@H](OC[C@H](C)NC(C)=O)CC1)n2C [Compound I-570]
52 | 166 nM | CC(=O)N[C@@H](C)CO[C@H]1CC[C@H](Oc2nc3ccc(OCC(F)(F)F)cc3n2C)CC1 [Compound I-571]
53 | 227 nM | CC(=O)N[C@@H](C)CO[C@H]1CC[C@H](Oc2nc3ccc(OC(F)(F)F)cc3n2C)CC1 [Compound I-572]
54 | 68 nM | CCCc1ccc2nc(O[C@H]3CC[C@H](OC[C@H](C)NC(C)=O)CC3)n(C)c2c1 [Compound I-573]

Row | IC50 | SMILES
55 | 129 nM | CC(=O)N[C@@H](C)CO[C@H]1CC[C@H](Oc2nc3ccc(C4CC4)cc3n2C)CC1 [Compound I-574]
56 | 62 nM | CCSc1ccc2nc(O[C@H]3CC[C@H](OC[C@H](C)NC(C)=O)CC3)n(C)c2c1 [Compound I-577]
57 | 110 nM | CC(=O)N[C@@H](C)CO[C@H]1CC[C@H](Oc2nc3ccc(SCC(C)C)cc3n2C)CC1 [Compound I-578]
58 | 334 nM | CCOc1ccc2nc(O[C@H]3CC[C@H](OC[C@H](C)NC(C)=O)CC3)n(CC)c2c1 [Compound I-579]
59 | 168 nM | CC(=O)N[C@@H](C)CO[C@H]1CC[C@H](Oc2nc3ccc(-c4ccccc4)cc3n2C)CC1 [Compound I-582]
60 | 71 nM | CCc1ccc2nc(O[C@H]3CC[C@H](OC[C@H](C)NC(C)=O)CC3)n(C)c2c1 [Compound I-583]
61 | 77 nM | CC(=O)N[C@@H](C)CO[C@H]1CC[C@H](Oc2nc3ccc(C(C)C)cc3n2C)CC1 [Compound I-585]
62 | 9 nM | CC(=O)N[C@@H](C)CO[C@H]1CC[C@H](Oc2nc3ccc(Oc4ccccc4)cc3n2C)CC1 [Compound I-586]
63 | 584 nM | CC(=O)N[C@@H](C)CO[C@H]1CC[C@H](Oc2nc3ccc(Oc4ccccn4)cc3n2C)CC1 [Compound I-590]
64 | 110 nM | CC(=O)N[C@@H](C)CO[C@H]1CC[C@H](Oc2nc3cnc(Oc4ccccc4)cc3n2C)CC1 [Compound I-592]
65 | 80 nM | CC(=O)N[C@@H](C)CO[C@H]1CC[C@H](Oc2nc3ccc(Oc4cccnc4)cc3n2C)CC1 [Compound I-593]
66 | 383 nM | CC(=O)N[C@@H](C)CO[C@H]1CC[C@H](Oc2nc3ccc(Oc4ccncc4)cc3n2C)CC1 [Compound I-594]
67 | 10 nM | CC(=O)N[C@@H](C)CO[C@H]1CC[C@H](Oc2nc3ccc(Oc4ccc(F)cc4)cc3n2C)CC1 [Compound I-596]
68 | 13 nM | CC(=O)N[C@@H](C)CO[C@H]1CC[C@H](Oc2nc3ccc(OCc4ccccc4)c(F)c3n2C)CC1 [Compound I-600]
69 | 28 nM | CC(=O)N[C@@H](C)CO[C@H]1CC[C@H](Oc2nc3cnc(OCc4ccccc4)c(Cl)c3n2C)CC1 [Compound I-620]

From patent US10150728B2, “Alkylene derivatives” (Shionogi & Co., Ltd., priority 2013, dated 2018)
